Assay in all cases: HotSpot kinase profiling
Type in all cases: biochemical

The target of one assay is T1, HIPK1 (Homo sapiens, UniProt Q86Z02).
T1 construct: purchased Reaction Biology Corp
The procedure, abridged:
(§1)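 Percent inhibition, averaged when run more than once and referenced to a DMSO negative control, came from a radioactive filter-binding readout on P81 paper. Reactions of kinase with freshly made substrate and cofactors ran for 2 h at room temperature.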

The target in the next assay is T2, ALK3/BMPR1A (Homo sapiens, UniProt P36894).
T2 construct: purchased Reaction Biology Corp
In outline:
as §1

The target in the next assay is T3, CLK2 (Homo sapiens, UniProt P49760).
T3 construct: purchased Reaction Biology Corp
In outline: as §1

The target of a further assay is T4, ULK3 (Homo sapiens, UniProt Q6PHR2).
T4 construct: purchased Reaction Biology Corp
T4 sequence (Q6PHR2 1-472): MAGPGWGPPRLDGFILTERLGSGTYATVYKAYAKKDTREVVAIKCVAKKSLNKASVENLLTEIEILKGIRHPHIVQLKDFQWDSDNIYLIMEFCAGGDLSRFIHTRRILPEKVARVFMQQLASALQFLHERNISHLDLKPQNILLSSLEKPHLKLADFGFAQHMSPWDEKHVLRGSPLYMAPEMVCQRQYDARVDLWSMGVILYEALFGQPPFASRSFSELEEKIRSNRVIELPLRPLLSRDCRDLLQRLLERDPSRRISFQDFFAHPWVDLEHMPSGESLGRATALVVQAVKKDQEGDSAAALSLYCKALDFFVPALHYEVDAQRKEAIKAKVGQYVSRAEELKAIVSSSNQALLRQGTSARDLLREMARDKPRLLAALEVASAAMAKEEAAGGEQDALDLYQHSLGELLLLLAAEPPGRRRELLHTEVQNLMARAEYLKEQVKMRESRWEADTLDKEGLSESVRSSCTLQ
In outline: as §1

A further assay addresses T5, GRK2 (Homo sapiens, UniProt P25098).
T5 construct: purchased Reaction Biology Corp
T5 sequence (P25098 1-689): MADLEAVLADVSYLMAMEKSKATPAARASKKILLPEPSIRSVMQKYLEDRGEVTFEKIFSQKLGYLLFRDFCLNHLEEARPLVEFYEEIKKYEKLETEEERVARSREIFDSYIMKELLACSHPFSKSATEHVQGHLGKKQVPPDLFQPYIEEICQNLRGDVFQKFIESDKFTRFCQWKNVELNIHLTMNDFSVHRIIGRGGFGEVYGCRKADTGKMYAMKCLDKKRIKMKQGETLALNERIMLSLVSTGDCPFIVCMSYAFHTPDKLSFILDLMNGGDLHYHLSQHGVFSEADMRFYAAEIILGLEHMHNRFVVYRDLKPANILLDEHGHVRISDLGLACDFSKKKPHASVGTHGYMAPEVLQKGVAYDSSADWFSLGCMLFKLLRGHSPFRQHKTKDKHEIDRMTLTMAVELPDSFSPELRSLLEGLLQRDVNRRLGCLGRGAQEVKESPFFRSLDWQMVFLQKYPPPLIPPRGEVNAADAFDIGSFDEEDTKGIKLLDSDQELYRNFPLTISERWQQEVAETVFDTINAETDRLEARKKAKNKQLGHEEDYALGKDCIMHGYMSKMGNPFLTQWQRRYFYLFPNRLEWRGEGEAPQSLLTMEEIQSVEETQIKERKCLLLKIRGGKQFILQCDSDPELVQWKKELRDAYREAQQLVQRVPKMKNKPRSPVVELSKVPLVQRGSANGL
The procedure, abridged:
as §1

For a further assay, the target named is T6, SIK2 (Homo sapiens, UniProt Q9H0K1).
T6 construct: purchased Reaction Biology Corp
In outline: as §1

A further assay has as its target T7, ZAP70 (Homo sapiens, UniProt P43403).
T7 construct: purchased Reaction Biology Corp
T7 sequence (P43403 1-619): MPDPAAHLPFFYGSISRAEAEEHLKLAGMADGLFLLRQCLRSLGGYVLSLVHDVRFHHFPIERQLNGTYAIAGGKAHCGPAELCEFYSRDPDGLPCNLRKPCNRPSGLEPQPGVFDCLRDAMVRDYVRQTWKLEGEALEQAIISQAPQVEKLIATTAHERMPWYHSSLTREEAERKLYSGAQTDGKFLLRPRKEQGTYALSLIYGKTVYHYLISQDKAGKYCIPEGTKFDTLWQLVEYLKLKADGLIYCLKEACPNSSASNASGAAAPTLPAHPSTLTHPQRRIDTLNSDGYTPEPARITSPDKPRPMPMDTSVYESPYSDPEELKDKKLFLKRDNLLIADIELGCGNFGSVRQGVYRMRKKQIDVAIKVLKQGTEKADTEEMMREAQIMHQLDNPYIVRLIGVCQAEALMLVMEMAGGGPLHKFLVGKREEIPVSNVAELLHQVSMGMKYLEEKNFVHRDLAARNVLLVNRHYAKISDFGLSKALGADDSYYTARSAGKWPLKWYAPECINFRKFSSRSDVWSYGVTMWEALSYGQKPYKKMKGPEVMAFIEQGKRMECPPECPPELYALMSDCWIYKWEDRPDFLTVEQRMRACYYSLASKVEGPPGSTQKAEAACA
The procedure, abridged: as §1

The next assay addresses T8, PKCtheta (Homo sapiens, UniProt Q04759).
T8 construct: purchased Reaction Biology Corp
The procedure, abridged:
as §1

Setting [1] is: read-out: % Enzyme Activity (relative to DMSO controls) Run 1.
[2] abbreviates: read-out: % Enzyme Activity (relative to DMSO controls) Run 2.

The source of these data is US9492471B2, “Methods of treating a disease or disorder associated with Bruton'S Tyrosine Kinase” (Celgene Avilomics Research, Inc., priority 2013, dated 2016).

Like-named read-outs stand apart in the source and are kept apart here.

T8 sequence (Q04759 whole entry): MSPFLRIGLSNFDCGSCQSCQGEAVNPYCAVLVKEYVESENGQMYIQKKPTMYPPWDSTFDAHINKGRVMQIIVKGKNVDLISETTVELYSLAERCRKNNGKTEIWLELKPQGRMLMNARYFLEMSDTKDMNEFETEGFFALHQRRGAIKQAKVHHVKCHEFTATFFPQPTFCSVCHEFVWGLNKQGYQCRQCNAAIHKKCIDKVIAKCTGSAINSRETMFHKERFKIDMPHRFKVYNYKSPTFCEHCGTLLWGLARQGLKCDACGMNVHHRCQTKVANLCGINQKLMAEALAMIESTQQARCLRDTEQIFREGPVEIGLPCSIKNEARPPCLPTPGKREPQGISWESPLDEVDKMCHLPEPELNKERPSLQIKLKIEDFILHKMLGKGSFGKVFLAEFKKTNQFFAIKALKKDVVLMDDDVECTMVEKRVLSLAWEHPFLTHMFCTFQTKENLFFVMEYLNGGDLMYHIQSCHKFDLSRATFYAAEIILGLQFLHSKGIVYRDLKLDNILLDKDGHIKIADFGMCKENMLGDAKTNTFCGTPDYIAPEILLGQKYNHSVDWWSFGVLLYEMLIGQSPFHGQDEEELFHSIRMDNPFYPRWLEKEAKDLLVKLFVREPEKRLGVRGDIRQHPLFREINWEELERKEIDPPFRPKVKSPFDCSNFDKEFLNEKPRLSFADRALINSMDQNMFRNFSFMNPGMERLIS
T1 sequence (Q86Z02 whole entry): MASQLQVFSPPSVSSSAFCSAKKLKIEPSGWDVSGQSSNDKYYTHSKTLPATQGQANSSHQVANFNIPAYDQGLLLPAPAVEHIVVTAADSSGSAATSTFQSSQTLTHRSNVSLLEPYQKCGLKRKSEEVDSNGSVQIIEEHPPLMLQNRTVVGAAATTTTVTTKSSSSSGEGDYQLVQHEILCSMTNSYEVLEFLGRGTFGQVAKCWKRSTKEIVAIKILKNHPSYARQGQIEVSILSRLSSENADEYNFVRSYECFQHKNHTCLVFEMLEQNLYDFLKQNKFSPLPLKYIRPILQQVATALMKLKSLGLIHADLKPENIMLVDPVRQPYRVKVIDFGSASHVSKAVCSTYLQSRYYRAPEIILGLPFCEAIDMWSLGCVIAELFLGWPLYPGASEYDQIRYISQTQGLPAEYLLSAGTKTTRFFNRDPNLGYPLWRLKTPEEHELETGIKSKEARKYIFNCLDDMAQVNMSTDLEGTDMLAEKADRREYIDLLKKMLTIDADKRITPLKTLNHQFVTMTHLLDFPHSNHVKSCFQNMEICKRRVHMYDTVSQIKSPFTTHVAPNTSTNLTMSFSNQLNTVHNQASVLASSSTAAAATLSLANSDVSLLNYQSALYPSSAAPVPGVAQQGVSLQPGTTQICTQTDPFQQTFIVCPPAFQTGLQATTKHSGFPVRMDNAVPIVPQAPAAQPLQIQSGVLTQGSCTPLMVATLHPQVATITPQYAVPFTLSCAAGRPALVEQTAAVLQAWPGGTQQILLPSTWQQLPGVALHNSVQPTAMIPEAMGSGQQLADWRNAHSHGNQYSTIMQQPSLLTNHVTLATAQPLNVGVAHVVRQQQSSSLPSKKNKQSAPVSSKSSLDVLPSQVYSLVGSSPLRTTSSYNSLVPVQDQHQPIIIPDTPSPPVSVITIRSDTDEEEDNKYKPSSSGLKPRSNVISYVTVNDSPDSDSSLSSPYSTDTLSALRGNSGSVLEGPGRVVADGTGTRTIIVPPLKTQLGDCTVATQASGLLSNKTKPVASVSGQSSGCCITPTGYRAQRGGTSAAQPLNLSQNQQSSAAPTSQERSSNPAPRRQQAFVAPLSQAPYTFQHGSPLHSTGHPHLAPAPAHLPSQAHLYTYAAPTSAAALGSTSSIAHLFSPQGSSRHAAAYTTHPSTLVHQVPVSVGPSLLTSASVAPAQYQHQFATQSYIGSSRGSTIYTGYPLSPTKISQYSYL
T6 sequence (Q9H0K1 whole entry): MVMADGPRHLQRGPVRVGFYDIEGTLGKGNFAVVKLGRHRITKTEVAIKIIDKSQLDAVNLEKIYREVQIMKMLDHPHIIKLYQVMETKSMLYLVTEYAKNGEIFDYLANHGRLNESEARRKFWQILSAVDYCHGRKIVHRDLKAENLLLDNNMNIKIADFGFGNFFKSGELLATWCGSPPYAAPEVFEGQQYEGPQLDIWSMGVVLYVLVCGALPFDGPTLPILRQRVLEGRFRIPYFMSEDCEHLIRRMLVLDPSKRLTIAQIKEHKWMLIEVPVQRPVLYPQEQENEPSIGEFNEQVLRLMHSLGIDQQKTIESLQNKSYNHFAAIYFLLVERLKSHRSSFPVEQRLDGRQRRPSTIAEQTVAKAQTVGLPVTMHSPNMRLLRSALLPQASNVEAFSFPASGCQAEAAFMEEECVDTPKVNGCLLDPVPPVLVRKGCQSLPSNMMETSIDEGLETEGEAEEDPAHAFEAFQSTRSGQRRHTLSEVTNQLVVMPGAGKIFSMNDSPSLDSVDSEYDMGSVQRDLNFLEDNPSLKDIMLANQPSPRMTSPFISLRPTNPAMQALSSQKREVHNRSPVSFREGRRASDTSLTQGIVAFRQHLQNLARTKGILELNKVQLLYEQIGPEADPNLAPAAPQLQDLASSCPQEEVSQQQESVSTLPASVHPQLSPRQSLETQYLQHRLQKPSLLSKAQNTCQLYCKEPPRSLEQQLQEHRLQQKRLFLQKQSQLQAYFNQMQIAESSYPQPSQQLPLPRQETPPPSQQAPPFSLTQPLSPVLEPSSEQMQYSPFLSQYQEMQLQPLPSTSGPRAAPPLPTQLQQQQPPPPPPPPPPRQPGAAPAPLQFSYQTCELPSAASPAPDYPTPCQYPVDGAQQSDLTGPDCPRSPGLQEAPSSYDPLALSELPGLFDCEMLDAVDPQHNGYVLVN
T2 sequence (P36894 24-532): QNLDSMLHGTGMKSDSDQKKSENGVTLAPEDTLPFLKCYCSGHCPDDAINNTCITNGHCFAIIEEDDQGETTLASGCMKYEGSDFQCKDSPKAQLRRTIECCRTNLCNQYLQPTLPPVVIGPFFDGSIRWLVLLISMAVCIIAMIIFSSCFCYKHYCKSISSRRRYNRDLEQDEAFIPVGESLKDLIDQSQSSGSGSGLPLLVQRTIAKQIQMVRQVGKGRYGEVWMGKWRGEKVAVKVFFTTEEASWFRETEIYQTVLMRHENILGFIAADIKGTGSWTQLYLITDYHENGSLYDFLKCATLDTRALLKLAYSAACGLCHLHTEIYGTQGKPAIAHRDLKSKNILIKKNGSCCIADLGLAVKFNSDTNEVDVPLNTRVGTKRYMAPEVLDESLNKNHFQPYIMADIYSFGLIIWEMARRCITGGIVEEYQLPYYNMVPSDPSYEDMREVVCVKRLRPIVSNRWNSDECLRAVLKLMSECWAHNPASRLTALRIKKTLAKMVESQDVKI
T3 sequence (P49760 whole entry): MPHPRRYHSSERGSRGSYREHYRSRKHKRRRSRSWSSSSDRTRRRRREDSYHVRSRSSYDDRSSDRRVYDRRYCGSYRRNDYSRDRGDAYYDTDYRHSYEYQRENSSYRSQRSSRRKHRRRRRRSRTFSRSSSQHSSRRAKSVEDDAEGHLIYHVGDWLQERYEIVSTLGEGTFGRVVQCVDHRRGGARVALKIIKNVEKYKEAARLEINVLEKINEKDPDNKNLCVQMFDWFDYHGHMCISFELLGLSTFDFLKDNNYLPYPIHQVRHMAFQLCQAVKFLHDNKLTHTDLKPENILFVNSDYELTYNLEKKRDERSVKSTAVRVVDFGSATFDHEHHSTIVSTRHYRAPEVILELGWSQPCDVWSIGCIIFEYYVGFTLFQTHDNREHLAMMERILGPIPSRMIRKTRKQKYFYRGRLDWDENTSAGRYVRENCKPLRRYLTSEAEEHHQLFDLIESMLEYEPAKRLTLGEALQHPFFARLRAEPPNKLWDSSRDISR

On to `C=CC(=O)Nc1cccc(Nc2nc(Nc3ccc(OCCOC)c(F)c3)ncc2F)c1` [Compound 2], for which the inhibition at 3 µM is 10.3% on HIPK1; -4.41% on ALK3/BMPR1A; 49.6% at CLK2; 21.7% on ULK3; -4.03% against GRK2; 43.3% against SIK2. Besides, the inhibition at 3 µM on ZAP70 was -9.21%; on PKCtheta it was 16.1%. In addition, the remaining activity at 3 µM worked out at 87.6% at HIPK1 (setting [1]); 91.7% at HIPK1 (setting [2]); 104% on ALK3/BMPR1A (setting [1]); 105% at ALK3/BMPR1A (setting [2]); 50.2% at CLK2 (setting [1]); 50.6% on CLK2 (setting [2]). The remaining activity at 3 µM turned out to be 79.6% at ULK3 (setting [1]); 77% at ULK3 (setting [2]); 104% on GRK2 (setting [1]); 104% on GRK2 (setting [2]); 56.3% at SIK2 (setting [1]); 57.1% at SIK2 (setting [2]). Further, the remaining activity at 3 µM at ZAP70 (setting [1]) amounted to 110%; at ZAP70 (setting [2]), 108%; on PKCtheta (setting [1]), 83.7%; on PKCtheta (setting [2]), 84.1%.
